The results in this text go back to patent US11759477B2, “Compositions of nitrates and methods of use thereof” (Heartbeet Ltd., priority 2007, dated 2023).

The nature of data set [1]: Blood pressure at rest after dietary sodium nitrate supplementation. It counts as in vivo, human. The following applies: 0.1 mmol/kg body weight/day oral, 3 days, mean±SD, n=9. The procedure: Subjects: Nine healthy, well trained (VO2peak 55±3.7 ml×kg-1×min-1), males (28±6 years) volunteered for the study. All subjects were trained cyclists or triathletes and well accustomed to the testing procedure. It was chosen to use well-trained subjects to avoid training effects from the tests such as enhanced VO2peak or better mechanical efficiency during submaximal exercise. The protocol was approved by the regional ethics committee in Stockholm and all subjects gave their written consent prior to participation.
Dietary supplementation with nitrate: The aim with the present study was to investigate the effects of two distinct dietary patterns, one with higher, and one with lower than normal nitrate intake. […] During two three-day periods, separated by a washout interval of ten days, the subjects were instructed to avoid all foods with moderate or high nitrate content (all vegetables, all cured meats, strawberries, grapes, and tea). In addition, they were told to restrain from alcohol and tobacco products. Otherwise they were free to eat any food they liked during the three days of restricted diet. The subjects were randomized to start with either ingestion of 0.1 mmol sodium nitrate/kg body weight/day dissolved in water or an equal amount of sodium chloride (placebo). The daily dose was divided and ingested three times daily. The different solutions could not be distinguished by taste or appearance. The daily nitrate dose corresponded to the amount normally found in 150-250 gram of a nitrate-rich vegetable such as spinach, lettuce or beetroot. The last dose of nitrate or placebo was ingested in the morning on the day of measurement (see the main tests below). The order between the nitrate supplementation period (NIT) and the placebo period (CON) was balanced.
The main tests: The subjects refrained from heavy exercise three days prior to the main tests and avoided all exercise the day before the tests. They were also told to eat their last light meal at least 3 hours before the start of the tests. […]

Data set [2] is described as follows: Oral Glucose Tolerance Test after three-day sodium nitrate supplementation (n=8). It counts as in vivo, human. To be noted: 75 g glucose, 0.1 mmol/kg body weight/day for three days. The procedure:
FIG. 8 is a graph showing changes in blood glucose levels after an oral challenge with glucose in 8 additional subjects in a double-blind, placebo-controlled cross-over study. A standard oral glucose tolerance test was performed. The subjects (healthy non-smoking volunteers) had their diet supplemented for 3 days with either sodium chloride (PLACEBO) or sodium nitrate (NITRATE) at a dose of 0.1 mmol/kg/day. Data are presented as mean±SEM.
The lower increase in plasma glucose after nitrate pre-treatment was verified in a further study wherein a standard Oral Glucos Tolerance Test (75 g glucose) was performed in 8 healthy non-smoking subjects after a three-day supplementation with either sodium chloride or sodium nitrate at equal molar amounts (0.1 mmol/kg body weight/day). […] Blood glucose levels were measured at two time points before (−10 and 0 min) and at 15, 30, 45, 60, 75, 90, 105 and 120 min after glucose intake (n=8). At the occasion when the subjects had taken nitrate, the area under the curve for blood glucose was smaller compared to when they had ingested placebo.

A short description of data set [3]: Post-ischemic abdominal aortic blood flow after nitrate infusion. It counts as in vivo. The following applies: rats, 10 mg/kg iv bolus + 3 mg/kg/h. The procedure:
Rats received an intravenous bolus dose of 10 mg/kg nitrate (NaNO3, n=4) or placebo (NaCl, n=4)) diluted in PBS (pH 7.4) followed by continuous infusion of 3 mg/kg body weight/h. An hour after the addition of nitrate (open boxes) or placebo (filled circles), L-NAME (50 mg/kg) was given, and 10 minutes later, a supra renal clamping of the abdominal aorta was performed. After 30 minutes of ischemia the clamp was removed and the abdominal aortic blood flow was monitored during 60 minutes.

Data set [4] is classed as in vivo, human.
Test in data set [5]: not given
The source holds these as a separate data set.

Data set [6] is described as follows: Plasma nitrite after intraperitoneal nitrate in wild type, germ free and eNOS knockout mice. The following applies: 10 mg/kg ip, 1 hour later. It counts as in vivo. The procedure:
Three different strains of mice—wild type (n=5 placebo, n=5 nitrate), germ free (n=5 placebo, n=5 nitrate) and eNOS knockout mice (n=2 placebo, n=3 nitrate), were given an intra peritoneal injection of 10 mg/kg body weight nitrate or placebo (NaCl) and plasma level of nitrite measured 1 hour later.

Data set [7] can be described thus: Oral Glucose Tolerance Test after nitrate pre-treatment (n=3). It counts as in vivo, human. The following applies: 75 g glucose, 60 min after nitrate 1 mmol/kg body weight NaNO3, n=3; placebo 8.2. The procedure: FIGS. 7a-7c consist of three graphs, showing changes in blood glucose levels after an oral challenge with glucose for three test subjects in a double-blind, placebo-controlled cross-over study (FIGS. 7a, 7b and 7c). A standard oral glucose tolerance test was performed. The subjects (healthy non-smoking volunteers) had their diet supplemented for 3 days with either sodium chloride (placebo) or sodium nitrate (Nitrate) at a dose of 0.1 mmol/kg body weight/day.
The increase in plasma glucose after a standard Oral Glucose Tolerance Test (75 g glucose in 250 ml water) is lower when measured after nitrate pre-treatment (1 mmol/kg body weight NaNO3) compared to placebo (NaCl). The study was performed with three healthy test subjects in a double-blind study. Glucose ingestion started 60 min after the nitrate ingestion. Blood glucose levels were measured during the 120 min period after the glucose load (n=3). At 30 min mean plasma glucose was 8.2 mmol/l with placebo and in the same subjects 6.5 mmol/l after nitrate supplementation.

The procedure of data set [8]: FIG. 2 is a graph showing changes in oxygen consumption (VO2) following iv infusion of sodium nitrite in increasing doses. Nitrite was infused over a 10 min period in non-smoking healthy male volunteers (30-70 years).
The present inventors have been studying the effects of nitrate and nitrite on various physiological functions including blood pressure, glucose metabolism and energy expenditure in vivo. In the examples below, unless otherwise noted, nitrate was administered perorally and nitrite was administered intravenously (iv). Oxygen consumption was measured using indirect calorimetry.
(§1) Prior to the test the subjects had been on a diet low in nitrate for one day and had been fasting for at least 8 h.
The source holds these as a separate data set.

The nature of data set [9]: clinical. The procedure: as §1
Where [10] appears, read: anesthetized rats, 10 mg/kg bolus NaNO3.

The structures appear in SMILES notation.

Consider `O=[N+]([O-])[O-].[Na+]` [sodium nitrate], for which, in data set [1], the “Average resting systolic blood pressure” value is reported as 112±8 mmHg and the “Resting diastolic blood pressure” value is 68±5.5 mmHg. For the same compound, the “Average resting systolic blood pressure” value in data set [1] (listed as NIT) is given as 120+/−5.9 mmHg. In addition, the “Area under the curve for blood glucose, vs placebo” value in data set [2] is “smaller”. Besides, the “Plasma nitrate levels immediately after the maximal work test” value (0.1 mmol/kg/day oral, 3 days, after maximal work test) was found to be 175 ± 61 µM. In addition, the “Plasma levels of nitrate at rest” value (0.1 mmol/kg/day oral, 3 days, at rest) worked out at 182000 ± 55000 nM. Also, the “Decrease in nitrite concentrations during exercise, vs CON” value (compared with placebo period) is given as “more pronounced”. Moreover, for the setting “in vivo, po”, the “Plasma nitrite levels at rest” value came out at 226 ± 87 nM and the “Plasma nitrite levels immediately after the maximal work test” value was determined as 137 ± 48 nM. In addition, the “Increase in c-GMP concentrations after the maximal work as compared to rest, vs CON” value (p=0.08) is given as “tended to be higher”. The “Change of plasma nitrate during exercise” value (p=0.8) is recorded as “did not change”. In addition, in data set [3], the “Post-ischemic blood flow in early (0-10 minutes) and late (10-60 minutes) phase, vs placebo” value is on record as “higher blood flow”. Also, in [3] (L-NAME, 30 min ischemia, control rats 20% of pre-ischemic values), the “Abdominal aortic blood flow after 60 min of reperfusion” value was ~75 % of control values. Besides, the “Average lowering of VO2 vs CON over the 4 submaximal work rates” value in [4] (45-80% VO2peak) came out at 0.15 L/min. Moreover, in [4] (any of the submaximal work rates), the “VE, VE/VO2 or respiratory exchange ratio (RER), NIT vs CON” value was “No significant differences”. For the same compound, the “Rating of perceived exertion (Borg RPE-scale), NIT vs CON” value in data set [4] (any work load (submax or max)) is “no difference”. In addition, the “Gross efficiency (GE)” value in [4] (average, p=0.02 vs CON) was 21.1%. In data set [4] (four lowest work rates, linear regression, p=0.04 vs CON), the “Delta efficiency (DE)” value was 22.9±1.9%. For the same compound, in [4] (in vivo), the “[Hla] (plasma lactate), NIT vs CON” value is recorded as “No significant differences”. The same compound showed a VO2peak in [4] (maximal work, no significant difference, p=0.29) of 4.49 ± 0.44 L/min. The compound also came in with a Maximal work rate in data set [4] (maximal work, p=0.35) of 360.6±32.8 watt. This compound came in with a VEmax in data set [4] (maximal work, p=0.5) of 182 ± 21.4 L/min. This compound registered an HRmax in data set [4] (maximal work, p=0.94) of 189.8±7.0 beats×min-1. Also, in data set [4] (submaximal work), the “Heart rate (HR), NIT vs CON” value is given as “no difference” and the “VO2 during the four work rates corresponding to 45-80% VO2peak, vs placebo period” value is given as “significantly lower”. Besides, the “VO2 at 80% of VO2peak” value in data set [4] (submaximal work, 0.1 mmol/kg/day oral, 3 days, p=0.003 vs CON) worked out at 3.44 ± 0.31 L/min. This compound gave an Oxygen pulse in data set [4] (submaximal work, p=0.08 vs CON) of 20.3±1.9 ml×beat-1. In addition, in data set [5] (setting [10]), the “Concentration of plasma nitrate after infusion” value is recorded as “increases dramatically” and the “Plasma nitrite concentrations after infusion” value is listed as “increased”. For the same compound, in data set [5] (rats, p<0.05), the “Increase in plasma nitrite, nitrate only vs nitrate+allopurinol” value is “significantly greater”. The “Nitrate-induced increase in plasma nitrite across wild type, germ free and eNOS knockout mice” value in data set [6] was “equal”. Besides, the “Mean plasma glucose at 30 min” value in [7] came to 6.5 mmol/L.
Take `O=NO` [sodium nitrite]: the “Reduction of resting energy expenditure” value in data set [8] (after 10 min of iv infusion, n=4, major drop at 10 nmoles/kg body weight/min) is recorded as 10-25%. In data set [8] (iv 1 nmol/kg body weight/min, 10 min observation period), the “Effect on energy expenditure / oxygen consumption” value is listed as “no obvious effects”. In addition, in data set [8] (iv 100 nmol/kg body weight/min), the “Oxygen consumption compared to the 10 nmol dose” value was “no further decrease in oxygen consumption”. Further, the “Methemoglobin after infusion of nitrite” value in data set [9] (basal 1.1-1.3 mmol/l, did not change significantly) was 1.1 to 1.4 mmol/L. Besides, the concentration at 10 min in [9] (human, plasma, iv, 10 nmol/kg body weight/min) fell in the range of 370 to 480 nM.
